Data as given in US20220000964A1, “Compositions and Methods for Regulating Homeostasis of Chondrocytes, Extracellular Matrix, Articular Cartilage, and Phenotype of Arthritis” (Unigen, Inc., priority 2020, published 2022).
Where “and” joins values, the source holds several entries; their conditions need not be identical. Equal entries are not always repeated. Marks after values point to notes of the source that are not given here.

Legend:
[1] = system: CIA rats; experiment: Collagen-induced arthritis (CIA) rats, arthritis severity index; format: in vivo, rat; conditions: for % Inhibition Arthritis index (AUC): vs CIA + vehicle
Method: Male Sprague Dawley rats (7-8 weeks old, n=40) were purchased from Charles River Laboratories Inc. (Wilmington, Mass., USA) and acclimated upon arrival for two weeks before being assigned randomly to their respective treatment groups: G1=Normal control (−) (n=10/group), G2=collagen-induced arthritis (CIA)+Vehicle (0.5% Carboxy Methylcellulose) (n=10/group), G3=CIA+Methotrexate (+) (75 μg/kg) (n=10/group), and G4=CIA+AMK (+) (200 mg/kg) (n=10/group). Treatment was initiated two weeks before model induction and lasted for an additional three weeks thereafter. Collagen type-II (Lot #845) from bovine nasal septum and Incomplete Freund's adjuvant (IFA) (Lot #SLBR0642v) were purchased from Elastin Products Company (Owensville, Mich., USA) and Sigma (St. Louise, Mo., USA), respectively. All materials were kept at suitable temperatures as recommended by the manufacturer. At the time of preparation, 60 mg of collagen was weighed and added to pre-chilled 15 mL 0.1 M acetic acid in a 60 mL-sized flask with a magnetic stirrer to yield 4 mg/mL concentration (Brand, et al., 2003; Rosloniec et al., 2001).
The mixture was dissolved by gently stirring overnight at 4° C. The next morning, the dissolved collagen was emulsified with equal volume of IFA (15 mL) to achieve a final concentration of 2 mg/mL collagen. Rats sedated with isoflurane were then primed intradermally with 400 μL of the emulsified collagen at the base of their tail at two sites using a 1 mL syringe fitted with a 26 G needle. The dissolved mixture was kept in an ice bucket and stirred between groups at the time of injection to preserve uniform consistency. On the seventh day, rats were inoculated with a booster dose of 2 mg/mL type II collagen emulsified with equal volume of incomplete adjuvant at 100 μL/rat/site.
Linear trapezoid rule was used to calculate area under the curve (AUC) for days 9-21. % Inhibition={(Mean value of treatment-mean value of CIA+)/(Mean value of control-mean value of CIA)}*100.
Male Sprague Dawley rats (7-8 weeks old, n=40) were purchased from Charles River Laboratories Inc. (Wilmington, Mass., USA) and acclimated upon arrival for two weeks before being assigned randomly to their respective treatment groups: G1=Normal control (−) (n=10/group), G2=collagen-induced arthritis (CIA)+Vehicle (0.5% Carboxy Methylcellulose) (n=10/group), G3=CIA+Methotrexate (+) (0.5 mg/kg) (n=10/group), and G4=CIA+AP (+) (200 mg/kg) (n=10/group). Treatment was initiated two weeks before model induction and lasted for an additional three weeks thereafter. Collagen type-II (Lot #845) from bovine nasal septum and Incomplete Freund's adjuvant (IFA) (Lot #SLBR0642v) were purchased from Elastin Products Company (Owensville, Mich., USA) and Sigma (St. Louise, Mo., USA), respectively. All materials were kept at suitable temperatures as recommended by the manufacturer. At the time of preparation, 60 mg of collagen was weighed and added to pre-chilled 15 mL 0.1 M acetic acid in a 60 mL-sized flask with a magnetic stirrer to yield 4 mg/mL concentration (Brand, et al., 2003; Rosloniec et al., 2001). The mixture was dissolved by gently stirring overnight at 4° C. The next morning, the dissolved collagen was emulsified with equal volume of IFA (15 mL) to achieve a final concentration of 2 mg/mL collagen.

[2] = system: CIA rats; experiment: CIA rats, compression-induced pain (Randall-Salitto); format: in vivo, rat
Method: Clinical findings such as arthritis severity index, paw thickness, ankle diameter (using Digital Absolute, Model #PK-0505CPX, Mitutoyo Corporation, Kawasaki, Japan), and pain sensitivity (using Randall Salitto, IITC Life Science Inc., Woodland Hills, Calif., USA) were monitored during the course of study. Urine was collected from overnight fasted rats using metabolic cages after three weeks of treatment post-model induction. At Necropsy, serum from the cardiac and synovial lavage (100 μL of saline was injected into the articular cavity and aspirated back to the syringe) for biomarkers and ankle joint for histopathology were collected from each animal.
(§1) Response to pressure as a measure of pain sensitivity was assessed using the Randall-Salitto probe attached to an electronic monitor on priming day, boost day, and days 12, 14, 16, 19, and 21. Both the left and right hind legs were monitored on those days and their average was used for data analysis. Changes from the vehicle-treated CIA rats have been reported as pain tolerance on those days.
as §1, with “measured” for “assessed”, “18” for “19,”, “20.” for “21.”, “averages were” for “average was”, “days. […] This reduction in pain sensitivity was statistically significant at all time points as of day-12 for both groups when compared to vehicle-treated CIA rats (Table 43).” for “days.”

[3] = AP CIA study, Methotrexate 0.5 mg/kg, AP 200 mg/kg oral
[4] = Boost, MTX 0.5 mg/kg, AP 200 mg/kg
[5] = Day 12, MTX 0.5 mg/kg, AP 200 mg/kg
[6] = Day 14, MTX 0.5 mg/kg, AP 200 mg/kg
[7] = Day 16, MTX 0.5 mg/kg, AP 200 mg/kg
[8] = Day 20, MTX 0.5 mg/kg, AP 200 mg/kg

## CN(Cc1cnc2nc(N)nc(N)c2n1)c1ccc(C(=O)N[C@@H](CCC(=O)O)C(=O)O)cc1 [Methotrexate]
[1]; AMK CIA study, MTX 75 μg/kg, AMK 200 mg/kg oral, AUC days 9-21
  percent reduction of area under the arthritis severity curve vs vehicle-treated CIA: 62.55% and 62.6%
[1]; AMK study, MTX 75 μg/kg, AMK 200 mg/kg
  AUC(d9-d21) (Mean ± SD) Arthritis index: 4.87 ± 0.21
[1]; [3]
  average arthritis severity score at the end of the study: 1.1±0.17
  percent reduction of area under the arthritis severity curve vs vehicle-treated CIA: 78.8%
[1]; AP study, MTX 0.5 mg/kg, AP 200 mg/kg
  AUC(d9-d21) (Mean ± SD) Arthritis index: 5.00 ± 0.48
[1]; [4]
  Arthritis Index, Mean: 0.00
[1]; CIA, MTX 75 μg/kg, AMK 200 mg/kg oral, Boost
  Arthritis Index, Mean: 0.00
[1]; CIA, MTX 75 μg/kg, AMK 200 mg/kg oral, Day 9
  Arthritis Index, Mean: 0.00
[1]; CIA, MTX 75 μg/kg, AMK 200 mg/kg oral, Day 10
  Arthritis Index, Mean: 0.00
[1]; CIA, MTX 75 μg/kg, AMK 200 mg/kg oral, Day 11
  Arthritis Index, Mean: 0.00
[1]; CIA, MTX 75 μg/kg, AMK 200 mg/kg oral, Day 12
  Arthritis Index, Mean: 0.23*
[1]; CIA, MTX 75 μg/kg, AMK 200 mg/kg oral, Day 13
  Arthritis Index, Mean: 0.46^¥
[1]; CIA, MTX 75 μg/kg, AMK 200 mg/kg oral, Day 14
  Arthritis Index, Mean: 0.70^¥
[1]; CIA, MTX 75 μg/kg, AMK 200 mg/kg oral, Day 15
  Arthritis Index, Mean: 1.10^€
[1]; CIA, MTX 75 μg/kg, AMK 200 mg/kg oral, Day 16
  Arthritis Index, Mean: 1.50^€
[1]; CIA, MTX 75 μg/kg, AMK 200 mg/kg oral, Priming
  Arthritis Index, Mean: 0.00
[1]; CIA, MTX 75 μg/kg, AMK 200 mg/kg oral, day 17
  Arthritis Index, Mean: 1.76^€
[1]; CIA, MTX 75 μg/kg, AMK 200 mg/kg oral, day 19
  Arthritis Index, Mean: 2.03^€
[1]; CIA, MTX 75 μg/kg, AMK 200 mg/kg oral, day 21 (end of study)
  Arthritis Index, Mean: 1.78±0.79
[1]; CIA, MTX 75 μg/kg, AMK 200 mg/kg oral, day 21 (end of study), listed as MTX
  Arthritis Index, Mean: 1.78^€
[1]; Day 10, MTX 0.5 mg/kg, AP 200 mg/kg
  Arthritis Index, Mean: 0
[1]; Day 11, MTX 0.5 mg/kg, AP 200 mg/kg
  Arthritis Index, Mean: 0
[1]; [5]
  Arthritis Index, Mean: 0.05**
[1]; Day 13, MTX 0.5 mg/kg, AP 200 mg/kg
  Arthritis Index, Mean: 0**
[1]; [6]
  Arthritis Index, Mean: 0**
[1]; Day 15, MTX 0.5 mg/kg, AP 200 mg/kg
  Arthritis Index, Mean: 0.35**
[1]; [7]
  Arthritis Index, Mean: 0.875**
[1]; Day 17, MTX 0.5 mg/kg, AP 200 mg/kg
  Arthritis Index, Mean: 1**
[1]; Day 19, MTX 0.5 mg/kg, AP 200 mg/kg
  Arthritis Index, Mean: 1.075**
[1]; [8]
  Arthritis Index, Mean: 1.1**
[1]; Priming, MTX 0.5 mg/kg, AP 200 mg/kg
  Arthritis Index, Mean: 0.00
[1]; MTX 75 μg/kg, AMK 200 mg/kg
  % Inhibition Arthritis index (AUC): 62.55%
[1]; MTX 0.5 mg/kg, AP 200 mg/kg
  % Inhibition Arthritis index (AUC): 78.78%
[2]; AP CIA study, Methotrexate 0.5 mg/kg, day 20
  pain tolerance improvement vs vehicle-treated CIA: 69.4%
[2]; AP CIA study, days 12-20
  range of reduction in pain sensitivity vs vehicle treated CIA rats: 8.39-69.4%
[2]; [4]
  Compression pain resistance vs CIA + vehicle (Mean ± SD): −1.50%
[2]; [5]
  Compression pain resistance vs CIA + vehicle (Mean ± SD): 8.39%
[2]; [6]
  Compression pain resistance vs CIA + vehicle (Mean ± SD): 27.30%
[2]; [7]
  Compression pain resistance vs CIA + vehicle (Mean ± SD): 54.31%
[2]; Day 18, MTX 0.5 mg/kg, AP 200 mg/kg
  Compression pain resistance vs CIA + vehicle (Mean ± SD): 64.13%
[2]; [8]
  Compression pain resistance vs CIA + vehicle (Mean ± SD): 69.35%
[2]; MTX 75 μg/kg, AMK 200 mg/kg oral, Boost
  Compression pain resistance vs CIA + vehicle (Mean ± SD): 0.27 ± 2.16%
[2]; MTX 75 μg/kg, AMK 200 mg/kg oral, Day 12
  Compression pain resistance vs CIA + vehicle (Mean ± SD): 6.8%
[2]; MTX 75 μg/kg, AMK 200 mg/kg oral, Day 12, listed as MTX
  Compression pain resistance vs CIA + vehicle (Mean ± SD): 6.75 ± 4.56 %
[2]; MTX 75 μg/kg, AMK 200 mg/kg oral, Day 14
  Compression pain resistance vs CIA + vehicle (Mean ± SD): 13.5%
[2]; MTX 75 μg/kg, AMK 200 mg/kg oral, Day 14, listed as MTX
  Compression pain resistance vs CIA + vehicle (Mean ± SD): 13.48 ± 15.98%
[2]; MTX 75 μg/kg, AMK 200 mg/kg oral, Day 16
  Compression pain resistance vs CIA + vehicle (Mean ± SD): 28.2%
[2]; MTX 75 μg/kg, AMK 200 mg/kg oral, Day 16, listed as MTX
  Compression pain resistance vs CIA + vehicle (Mean ± SD): 28.18 ± 12.53 %
[2]; MTX 75 μg/kg, AMK 200 mg/kg oral, Day 19
  Compression pain resistance vs CIA + vehicle (Mean ± SD): 40.8%
[2]; MTX 75 μg/kg, AMK 200 mg/kg oral, Day 19, listed as MTX
  Compression pain resistance vs CIA + vehicle (Mean ± SD): 40.77%
[2]; MTX 75 μg/kg, AMK 200 mg/kg oral, Day 21
  Compression pain resistance vs CIA + vehicle (Mean ± SD): 43.9%
[2]; MTX 75 μg/kg, AMK 200 mg/kg oral, Day 21, listed as MTX
  Compression pain resistance vs CIA + vehicle (Mean ± SD): 43.88 ± 5.97^¥ %
[2]; MTX 75 μg/kg, AMK 200 mg/kg oral, Prime
  Compression pain resistance vs CIA + vehicle (Mean ± SD): −0.12 ± 1.39%
[2]; Prime, MTX 0.5 mg/kg, AP 200 mg/kg
  Compression pain resistance vs CIA + vehicle (Mean ± SD): −1.20%
